Article PMC4597613, “Polyhedra structures and the evolution of the insect viruses” (Journal of Structural Biology, 2015)

Legend:
[1] = target: CPV18 polyhedrin (Operophtera brumata cypovirus 18, UniProt Q30C70); assay: X-ray crystal structure of polyhedra, […] A; assay type: binding; conditions: nucleotide trapped in crystal from Sf9 cells, purine cluster
[2] = target: CPV15 polyhedrin (Trichoplusia ni cypovirus 15, UniProt Q9ELS6); conditions: nucleotide trapped in crystal from Sf9 cells; two ATPs in purine cluster site, one on V3 and V2c, the other at the 2-fold axis
[3] = target: CPV20 polyhedrin (Simulium ubiquitum cypovirus, UniProt Q0MX25); assay: X-ray crystal structure of polyhedra, […] A; assay type: binding; conditions: nucleotide trapped in crystal from Sf9 cells; pyrimidine region in trimer interface; not well ordered, identity inferred from space and hydrogen bonding

Question: With `Nc1ncnc2c1ncn2[C@@H]1O[C@H](COP(=O)(O)OP(=O)(O)OP(=O)(O)O)[C@@H](O)[C@H]1O` [ATP] as the molecule, how does the “X-ray crystal structure of polyhedra, 1.48 A” value ([1]; V4 regions of two chains, H154 to phosphates) read?
Answer: ATP is supported by two V4 regions from different polypeptide chains

Question: What about the “X-ray crystal structure of polyhedra, 1.82 A” value [2] of the same molecule?
Answer: leaving space for two ATPs in different conformations to CPV1

Question: For `Nc1nc2c(ncn2[C@@H]2O[C@H](COP(=O)(O)OP(=O)(O)OP(=O)(O)O)[C@@H](O)[C@H]2O)c(=O)[nH]1` [GTP], which “X-ray crystal structure of polyhedra, 1.48 A” value ([1]; V2c and V1) is on record?
Answer: GTP hydrogen bonds with V2c and V1

Question: How did the “X-ray crystal structure of polyhedra, 1.83 A” value [3] turn out when `O=c1ccn([C@@H]2O[C@H](COP(=O)(O)OP(=O)(O)OP(=O)(O)O)[C@@H](O)[C@H]2O)c(=O)[nH]1` [UTP] was run?
Answer: The pyridine in CPV20 is not well ordered, but can be identified as UTP
